Laboratory results as given in article PMC6002460, “Pharmacological evaluation of new constituents of “Spice”: synthetic cannabinoids based on indole, indazole, benzimidazole and carbazole scaffolds” (Forensic Toxicology, 2018).
Where two headings read alike, the source gives them in different places.

Assays:
[1] = biological target: T1, human GPR55 (Homo sapiens, UniProt Q9Y2T6); conditions: previous study; cited from earlier work
T1 construct: host or cells: CHO cells

[2] = biological target: T2, human CB2 receptor (Homo sapiens, UniProt P34972); experiment: biochemical; assay type: binding; conditions: [3H]CP55,940 0.1 nM, CHO cell membranes; read-out: Ki ± SEM Human CB2
T2 construct: expressed in transfected cells; host or cells: CHO cells (membrane preparations)
T2 sequence (P34972 whole entry): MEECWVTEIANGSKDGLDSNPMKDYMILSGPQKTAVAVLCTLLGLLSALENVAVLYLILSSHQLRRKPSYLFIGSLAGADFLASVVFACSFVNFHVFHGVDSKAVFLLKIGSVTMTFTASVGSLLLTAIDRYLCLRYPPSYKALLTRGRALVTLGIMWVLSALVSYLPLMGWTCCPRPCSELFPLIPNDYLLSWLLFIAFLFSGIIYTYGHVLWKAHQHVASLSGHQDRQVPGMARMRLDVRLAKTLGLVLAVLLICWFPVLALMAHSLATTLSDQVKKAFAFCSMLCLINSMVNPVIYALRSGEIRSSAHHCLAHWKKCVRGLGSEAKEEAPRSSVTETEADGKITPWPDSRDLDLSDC

[3] = biological target: T1, human GPR55; experiment: β-Arrestin PathHunter assay, recombinant CHO cells expressing GPR55; assay type: cell-based; conditions: for Human GPR55 % inhibition: antagonist mode versus LPI 1 µM; for Human GPR55 % inhibition / Human GPR55 % activation: value in parentheses
Description: (§1) β-Arrestin assays were performed in recombinant CHO cells expressing either the human GPR18 or the human GPR55 as described before using the β-galactosidase enzyme fragment complementation technology (β-arrestin PathHunter™ assay; DiscoverX, Fremont, CA, USA).
(§2) The orphan receptors GPR18 and GPR55 can interact with certain natural and synthetic cannabinoids. […] Therefore, we investigated the new series of indole, indazole, benzimidazole and carbazole-derived structures in β-arrestin assays at GPR18 and GPR55 (Table 2). […] For the lipophilic substitutions, the following rank order of potency was observed: ethyl > methyl > chloro > fluoro. Therefore, it can be concluded that a lipophilic substitution in position 4 of the naphthyl residue was a requirement for GPR55 inhibition.

[4] = biological target: T3, human CB1 receptor (Homo sapiens, UniProt P21554); experiment: cAMP accumulation assay, CHO cells stably expressing CB1; assay type: cell-based
T3 construct: expressed in transfected cells; host or cells: CHO cells (membrane preparations)
T3 sequence (P21554 whole entry): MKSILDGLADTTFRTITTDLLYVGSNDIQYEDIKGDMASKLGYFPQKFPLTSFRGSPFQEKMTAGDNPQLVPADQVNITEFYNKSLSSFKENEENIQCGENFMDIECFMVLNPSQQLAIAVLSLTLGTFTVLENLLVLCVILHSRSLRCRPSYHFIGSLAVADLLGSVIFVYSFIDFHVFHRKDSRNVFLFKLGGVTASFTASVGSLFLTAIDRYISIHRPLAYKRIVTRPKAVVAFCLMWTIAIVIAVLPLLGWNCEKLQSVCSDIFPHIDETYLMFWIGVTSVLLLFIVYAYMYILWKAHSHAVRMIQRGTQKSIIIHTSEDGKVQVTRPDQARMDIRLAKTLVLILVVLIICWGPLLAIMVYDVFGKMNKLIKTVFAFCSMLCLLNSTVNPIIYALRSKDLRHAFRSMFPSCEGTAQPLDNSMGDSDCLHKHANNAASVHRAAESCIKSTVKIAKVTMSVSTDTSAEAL
Description: (§3) cAMP accumulation assays were performed also as previously described. Briefly, CHO cells stably expressing the respective human CB receptor subtype CB1 or CB2 were seeded overnight. […] After incubation for 15 min the buffer was removed, and the cells were lyzed. The amount of cAMP was determined in a radioligand binding assay by incubating 50 µL of the cell lysate with 3 nM [^3H]cAMP in the presence of protein preparations from bovine adrenal glands (cAMP binding protein). Bound and unbound radioligand were separated by rapid filtration through GF/B filters, and radioactivity was determined by liquid scintillation counting. To test for antagonistic activity, test compounds were added to Hank’s buffered salt solution (HBSS) containing 10% dimethyl sulfoxide (DMSO), 10 min after the application of Ro-20-1724, and the mixture was incubated for 20 min at 37 °C.
(§4) As a next step, we investigated the compounds in cAMP accumulation assays, to obtain information on their functionality (Fig. 3). CB receptors are Gi protein-coupled and thus reduce the levels of cAMP in the cells upon activation.

[5] = biological target: CB2 receptor; conditions: membrane potential assay, cited from earlier work
[6] = tested on: rats; set-up: method as in PMID 27421060; conditions: cited from earlier work
[7] = biological target: T3, human CB1 receptor; experiment: biochemical; assay type: binding; conditions: [3H]CP55,940 0.1 nM, CHO cell membranes; read-out: Ki ± SEM Human CB1
[8] = biological target: T4, human GPR18 (Homo sapiens, UniProt Q14330); experiment: β-Arrestin PathHunter assay, recombinant CHO cells expressing GPR18; assay type: cell-based; conditions: for Human GPR18 % activation / Human GPR18 % inhibition: value in parentheses
T4 construct: host or cells: CHO cells
T4 sequence (Q14330 1-331): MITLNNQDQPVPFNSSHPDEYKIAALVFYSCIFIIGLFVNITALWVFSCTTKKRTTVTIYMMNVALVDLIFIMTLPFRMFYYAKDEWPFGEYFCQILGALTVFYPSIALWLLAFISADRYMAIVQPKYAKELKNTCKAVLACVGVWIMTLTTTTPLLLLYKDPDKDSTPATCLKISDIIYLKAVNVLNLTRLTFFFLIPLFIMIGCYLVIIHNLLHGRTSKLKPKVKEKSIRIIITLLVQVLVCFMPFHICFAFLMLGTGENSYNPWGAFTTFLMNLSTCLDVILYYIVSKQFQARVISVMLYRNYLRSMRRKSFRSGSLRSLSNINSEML
Description: as §1, §2

[9] = biological target: CB1 receptor; conditions: membrane potential assay, cited from earlier work
[10] = biological target: T2, human CB2 receptor; experiment: cAMP accumulation assay, CHO cells stably expressing CB2; assay type: cell-based
Description: as §3, §4

[11] = biological target: CB1 receptor; set-up: method as in Bowden et al. [43]; conditions: HTRF cAMP accumulation; ref Bowden et al. [43]; cited from earlier work
[12] = biological target: CB2 receptor; set-up: method as in Bowden et al. [43]; conditions: HTRF cAMP accumulation; ref Bowden et al. [43]; cited from earlier work
[13] = biological target: CB2 receptor; set-up: method as in Wiley et al. [41]; conditions: versus 0.62 nM [3H]CP55,940; ref Wiley et al. [41]; cited from earlier work
[14] = set-up: method as in Wiley et al. [41]; conditions: receptor subtype not stated; ref Wiley et al. [41]; read-out: EC50 in [35S]GTPγS assays; cited from earlier work
[15] = biological target: CB1 receptor; set-up: method as in Wiley et al. [41]; conditions: versus 0.62 nM [3H]CP55,940; ref Wiley et al. [41]; cited from earlier work
[16] = biological target: T3, human CB1 receptor; set-up: method as in PMID 27429655; conditions: previous study; cited from earlier work
[17] = compound at 10 µM, normalized to CP55,940 (1 µM)

T1 sequence (Q9Y2T6 whole entry): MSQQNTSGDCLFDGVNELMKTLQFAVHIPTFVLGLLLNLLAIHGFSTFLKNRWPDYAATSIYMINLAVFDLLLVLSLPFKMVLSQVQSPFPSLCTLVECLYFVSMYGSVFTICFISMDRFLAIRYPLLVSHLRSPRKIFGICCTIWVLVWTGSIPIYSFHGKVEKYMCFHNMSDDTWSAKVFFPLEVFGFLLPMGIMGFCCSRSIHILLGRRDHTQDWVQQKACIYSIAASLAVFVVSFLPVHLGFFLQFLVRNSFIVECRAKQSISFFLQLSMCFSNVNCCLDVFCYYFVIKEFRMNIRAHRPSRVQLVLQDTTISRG

| SMILES | Ki [2] | EC50 [3] | IC50 [3] | Human GPR55 % inhibition [3] | Ki [7] | EC50 [8] | IC50 [8] | Human GPR18 % activation ([8]; agonist mode) | Human GPR18 % inhibition ([8]; antagonist mode) | Human GPR55 % activation ([3]; agonist mode) | EC50 [11] | EC50 [12] | other results |
| --- | --- | --- | --- | --- | --- | --- | --- | --- | --- | --- | --- | --- | --- |
| CCc1ccc(C(=O)c2cn(CCCCCF)c3ccccc23)c2ccccc12 [EAM-2201] |  |  |  |  |  |  |  |  |  |  |  |  | IC50 [1]: 1860 nM |
| COC(=O)[C@@H](NC(=O)c1nn(Cc2ccc(F)cc2)c2ccccc12)C(C)(C)C [compound 12, MDMB-FUBINACA] | 0.13 ± 0.01 nM | > 10000 nM | > 10000 nM | 30% | 0.0985 ± 0.0291 nM | > 10000 nM | > 10000 nM | 18% | 31% |  |  |  | EC50 [4]: 0.0641 nM; EC50 ([5]; ref Banister et al. [38]): 55 nM; hypothermal response [6]: highest hypothermal response; EC50 ([9]; ref Banister et al. [38]): 3.9 nM; EC50 [10]: 0.756 nM |
| CC(C)(NC(=O)c1nn(CC2CCOCC2)c2ccccc12)c1ccccc1 [compound 33] | 1.38 ± 0.86 nM | > 10000 nM | > 10000 nM | 7% | 1.23 ± 0.2 nM | > 10000 nM | > 10000 nM | 11% | 9% | 11% | 0.1 nM | 0.59 nM |  |
| O=C(c1cccc2ccccc12)c1nc2ccccc2n1CCCCCF [compound 42, FUBIMINA] | 99 ± 28.4 nM |  |  | 44% | 502 ± 181 nM |  |  | 42% | 14% | 16% |  |  | EC50 ([3]; agonist mode, read-out: Human GPR55 EC50): > 10000 nM; IC50 ([3]; antagonist mode versus lysophosphatidylinositol (LPI, 1 µM), read-out: Human GPR55 IC50): > 10000 nM; CB1 receptor activation in cAMP accumulation assay (in words) [4, 17]: partial activation; Ki [13]: 23.5 nM; EC50 ([8]; agonist mode, read-out: Human GPR18 EC50): > 10000 nM; IC50 ([8]; antagonist mode, read-out: Human GPR18 IC50): > 10000 nM; EC50 [14]: 2470 nM; CB2 receptor activation in cAMP accumulation assay (in words) [10, 17]: partial activation; Ki [15]: 296 nM |
| CC(C)(NC(=O)c1cn(CCCCCF)c2ccccc12)c1ccccc1 [compound 32, 5F-Cumyl-PICA] | 29.1 ± 2.4 nM | > 10000 nM | > 10000 nM |  | 1.37 ± 0.26 nM | > 10000 nM | > 10000 nM | 16% |  | 14% | < 0.1 nM | 0.37 nM | EC50 ([5]; ref Longworth et al. [51]): 39.6 nM; EC50 ([9]; ref Longworth et al. [51]): 2.8 nM |
| O=C(Oc1cccc2cccnc12)c1cn(CC2CCCCC2)c2ccccc12 [BB-22] |  |  |  |  |  |  |  |  |  |  |  |  | Ki [16]: 0.217 nM |
